Measured values from patent US20080058332A1, “2,4,6-Trisubstituted Pyrimidines as Phosphotidylinositol (Pi) 3-Kinase Inhibitors and Their Use in the Treatment of Cancer” (priority 2004, published 2008).

Assays:
[1] = target: T1, p110α Type Ia human PI3K (Homo sapiens, UniProt P42336); assay: In vitro enzyme assay (AlphaScreen), inhibition of phosphorylation of PI(4,5)P2 by recombinant Type I PI3K; format: biochemical; details: DiC8-PI(4,5)P2 40 μM, ATP 4 μM, read-out: IC50 versus p110α Type Ia human PI3K, Test (a)
T1 construct: full length DNA of each of the p110α, p110β and p110δ Type Ia human PI3K p110 isoforms; 6-His; made in house
Text: (a) In Vitro Enzyme Assay
The assay used AlphaScreen technology (Gray et al., Analytical Biochemistry, 2003, 313: 234-245) to determine the ability of test compounds to inhibit phosphorylation by recombinant Type I PI3K enzymes of the lipid PI(4,5)P2.
DNA fragments encoding human PI3K catalytic and regulatory subunits were isolated from cDNA libraries using standard molecular biology and PCR cloning techniques. The selected DNA fragments were used to generate baculovirus expression vectors. In particular, full length DNA of each of the p110α, p110β and p110δ Type Ia human PI3K p110 isoforms (EMBL Accession Nos. HSU79143, S67334, Y10055 for p110α, p110β and p110δ respectively) were sub-cloned into a pDEST10 vector (Invitrogen Limited, Fountain drive, Paisley, UK). The vector is a Gateway-adapted version of Fastbac1 containing a 6-His epitope tag. A truncated form of Type Ib human PI3K p110γ isoform corresponding to amino acid residues 144-1102 (EMBL Accession No. X8336A) and the full length human p85α regulatory subunit (EMBL Accession No. HSP13KIN) were also sub-cloned into pFastBac1 vector containing a 6-His epitope tag. The Type Ia p110 constructs were co-expressed with the p85α regulatory subunit. Following expression in the baculovirus system using standard baculovirus expression techniques, expressed proteins were purified using the His epitope tag using standard purification techniques.
DNA corresponding to amino acids 263 to 380 of human Grp1 PH domain was isolated from a cDNA library using standard molecular biology and PCR cloning techniques. […]
Biotinylated-DiC8-PI(3,4,5)P3 (50 nM; Cell Signals Inc., Catalogue No. 107), recombinant purified GST-Grp1 PH protein (2.5 nM) and AlphaScreen Anti-GST donor and acceptor beads (100 ng; Packard Bioscience Limited, Station Road, Pangbourne, Berkshire, UK, Catalogue No. 6760603M) were added and the assay plates were left for about 5 to 20 hours at ambient temperature in the dark. The resultant signals arising from laser light excitation at 680 nm were read using a Packard AlphaQuest instrument. […]

[2] = tested on: phosphorylation of Serine 473 in Akt; assay: In vitro phospho-Ser473 Akt assay in MDA-MB-468 cells; format: cell-based; details: Homo sapiens, 2 hours incubation, read-out: IC50, Test (b), inhibition of phosphorylation of Serine 473 in Akt
Procedure: (b) In Vitro phospho-Ser473 Akt Assay
This assay determines the ability of test compounds to inhibit phosphorylation of Serine 473 in Akt as assessed using Acumen Explorer technology (Acumen Bioscience Limited), a plate reader that can be used to rapidly quantitate features of images generated by laser-scanning.
A MDA-MB-468 human breast adenocarcinoma cell line (LGC Promochem, Teddington, Middlesex, UK, Catalogue No. HTB-132) was routinely maintained at 37° C. with 5% CO2 up to a confluency of 70-90% in Dulbecco's modified Eagle's growth medium (DMEM; Invitrogen Limited, Paisley, UK Catalogue No. 41966-029) containing 10% heat-inactivated foetal calf serum (FCS; Sigma, Poole, Dorset, UK, Catalogue No. F0392) and 1% L-glutamine (Gibco, Catalogue No. 25030-024).
For the assay, the cells were detached from the culture flask using ‘Accutase’ (Innovative Cell Technologies Inc., San Diego, Calif., USA; Catalogue No. AT104) using standard tissue culture methods and resuspended in media to give 1.7×10^5 cells per ml. […]
All subsequent aspiration and wash steps were carried out using a Tecan 96 well plate washer (aspiration speed 10 mm/sec). […] An aliquot of PBS (50 μl) was added to each well and the plates were sealed with black plate sealers and the fluorescence signal was detected and analysed. […]

[3] = tested on: MDA-MB-468 human breast adenocarcinoma cells; assay: In vitro MDA-MB-468 human breast adenocarcinoma proliferation assay; format: cell-based; details: 48 hours incubation, BrdU incorporation, read-out: IC50, Test (c), inhibition of MDA-MB-468 cell growth
Text: (c) In Vitro MDA-MB-468 Human Breast Adenocarcinoma Proliferation Assay
This assay determines the ability of test compounds to inhibit cell proliferation as assessed using Cellomics Arrayscan technology. A MDA-MB-468 human breast adenocarcinoma cell line (LGC Promochem, Catalogue No. HTB-132) was routinely maintained as described in Biological Assay (b) hereinbefore.
For the proliferation assay, the cells were detached from the culture flask using Accutase and seeded into the inner 60 wells of a black Packard 96 well plate at a density of 8000 cells per well in 100 μl of complete growth media. The outer wells contained 100 μl of sterile PBS. The cells were incubated overnight at 37° C. with 5% CO2 to allow them to adhere.
On day 2, the cells were treated with test compounds and incubated for 48 hours at 37° C. with 5% CO2. […]
BrdU incorporation was detected by incubation for 1 hour at ambient temperature with mouse anti-BrdU antibody (50 μl; Caltag, Burlingame, Calif., US; Catalogue No. MD5200) that was diluted 1:40 in PBS containing 1% BSA and 0.05% Tween-20. […] Subsequently, PBS (100 μl) was added to each well and the plates were analysed using a Cellomics array scan to assess total cell number and number of BrdU positive cells.
Fluorescence dose response data obtained with each compound were analysed and the degree of inhibition of MDA-MB-468 cell growth was expressed as an IC50 value.

T1 sequence (P42336 whole entry, canonical isoform): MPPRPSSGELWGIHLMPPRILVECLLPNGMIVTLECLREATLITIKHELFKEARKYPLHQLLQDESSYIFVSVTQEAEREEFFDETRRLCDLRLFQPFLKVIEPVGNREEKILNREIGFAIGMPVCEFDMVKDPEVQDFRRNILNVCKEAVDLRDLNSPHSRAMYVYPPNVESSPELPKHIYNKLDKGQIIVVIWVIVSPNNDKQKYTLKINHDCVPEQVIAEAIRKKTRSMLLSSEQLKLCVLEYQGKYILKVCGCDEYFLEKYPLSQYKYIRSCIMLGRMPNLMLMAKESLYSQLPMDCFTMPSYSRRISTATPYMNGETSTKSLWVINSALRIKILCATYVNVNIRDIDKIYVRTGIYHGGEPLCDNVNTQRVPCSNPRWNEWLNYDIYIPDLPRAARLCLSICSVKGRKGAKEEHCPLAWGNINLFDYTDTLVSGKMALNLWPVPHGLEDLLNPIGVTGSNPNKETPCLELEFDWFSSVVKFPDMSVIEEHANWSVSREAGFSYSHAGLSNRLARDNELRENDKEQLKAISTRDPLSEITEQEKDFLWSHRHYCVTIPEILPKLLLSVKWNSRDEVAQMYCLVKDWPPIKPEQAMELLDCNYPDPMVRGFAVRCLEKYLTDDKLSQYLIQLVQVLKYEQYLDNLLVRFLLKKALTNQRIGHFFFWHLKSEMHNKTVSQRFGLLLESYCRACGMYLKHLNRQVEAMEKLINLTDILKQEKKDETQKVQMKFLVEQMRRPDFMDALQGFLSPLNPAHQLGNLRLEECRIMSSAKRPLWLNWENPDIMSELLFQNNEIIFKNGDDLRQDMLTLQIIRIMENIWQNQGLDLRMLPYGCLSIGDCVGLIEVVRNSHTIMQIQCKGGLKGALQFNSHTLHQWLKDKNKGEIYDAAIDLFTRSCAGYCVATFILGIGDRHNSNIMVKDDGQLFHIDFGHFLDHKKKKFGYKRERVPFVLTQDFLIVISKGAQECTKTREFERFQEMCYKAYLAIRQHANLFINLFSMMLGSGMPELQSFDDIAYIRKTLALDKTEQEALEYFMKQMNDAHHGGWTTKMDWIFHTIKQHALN
T1 sequence (P27986 whole entry partner, canonical isoform): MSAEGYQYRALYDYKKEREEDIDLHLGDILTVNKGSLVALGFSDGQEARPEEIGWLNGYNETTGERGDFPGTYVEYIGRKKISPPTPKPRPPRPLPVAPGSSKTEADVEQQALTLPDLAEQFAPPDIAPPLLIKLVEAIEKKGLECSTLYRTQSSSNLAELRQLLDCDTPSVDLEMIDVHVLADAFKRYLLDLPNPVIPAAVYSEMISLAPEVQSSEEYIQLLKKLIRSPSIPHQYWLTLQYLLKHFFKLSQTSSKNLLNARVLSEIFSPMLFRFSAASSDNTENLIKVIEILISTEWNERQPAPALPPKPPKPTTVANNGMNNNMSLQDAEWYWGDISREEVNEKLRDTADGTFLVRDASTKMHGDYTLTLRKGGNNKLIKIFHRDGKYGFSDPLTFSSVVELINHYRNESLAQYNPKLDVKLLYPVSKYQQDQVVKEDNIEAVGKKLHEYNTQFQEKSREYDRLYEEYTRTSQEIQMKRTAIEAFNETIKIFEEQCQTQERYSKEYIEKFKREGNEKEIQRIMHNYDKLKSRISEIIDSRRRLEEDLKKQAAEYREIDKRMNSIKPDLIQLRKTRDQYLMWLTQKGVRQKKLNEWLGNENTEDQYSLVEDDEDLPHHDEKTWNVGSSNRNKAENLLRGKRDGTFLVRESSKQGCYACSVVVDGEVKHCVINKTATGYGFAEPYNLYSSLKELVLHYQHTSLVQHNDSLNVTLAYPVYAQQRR

IC50 [1] | IC50 [2] | IC50 [3] | SMILES
~700 nM | ~5100 nM | ~10000 nM | N[C@H]1CCC[C@@H](CC(=O)Nc2cccc(-c3nc(-c4cccc(CO)c4)cc(N4CCOCC4)n3)c2)C1 [Example 6(33), 2-(3-{2-[(1R,3S)-3-aminocyclohex-1-yl]acetamido]phenyl}-4-(3-hydroxymethylphenyl)-6-morpholinopyrimidine]
~1000 nM | ~1800 nM | ~5000 nM | NCc1cccc(C(=O)Nc2cccc(-c3nc(-c4cccc(CO)c4)cc(N4CCOCC4)n3)c2)c1 [Example 6(48), 2-[3-(3-aminomethylbenzamido)phenyl]-4-(3-hydroxymethylphenyl)-6-morpholinopyrimidine]
~1000 nM |  |  | O=C(Nc1cccc(-c2nc(-c3cccc(O)c3)cc(N3CCOCC3)n2)c1)C1CCNCC1 [Example 4(3), 4-(3-hydroxyphenyl)-6-morpholino-2-(3-piperidin-4-ylcarbonylaminophenyl)pyrimidine]
